Assays:
rat FAAH = biological target: T1, rat FAAH (Rattus norvegicus, UniProt P97612); experiment: FAAH assay, rat FAAH enzyme inactivation (kinact/Ki); assay type: biochemical; settings: oleamide 50 μM, 30° C.; for kinact/KI: pH 7.4, in vitro, read-out: rFAAH kinact/Ki; for rFAAH kinact/Ki: in vitro, pH 7.4
T1 construct: made in house; host or cells: E. coli
T1 sequence (P97612 1-579): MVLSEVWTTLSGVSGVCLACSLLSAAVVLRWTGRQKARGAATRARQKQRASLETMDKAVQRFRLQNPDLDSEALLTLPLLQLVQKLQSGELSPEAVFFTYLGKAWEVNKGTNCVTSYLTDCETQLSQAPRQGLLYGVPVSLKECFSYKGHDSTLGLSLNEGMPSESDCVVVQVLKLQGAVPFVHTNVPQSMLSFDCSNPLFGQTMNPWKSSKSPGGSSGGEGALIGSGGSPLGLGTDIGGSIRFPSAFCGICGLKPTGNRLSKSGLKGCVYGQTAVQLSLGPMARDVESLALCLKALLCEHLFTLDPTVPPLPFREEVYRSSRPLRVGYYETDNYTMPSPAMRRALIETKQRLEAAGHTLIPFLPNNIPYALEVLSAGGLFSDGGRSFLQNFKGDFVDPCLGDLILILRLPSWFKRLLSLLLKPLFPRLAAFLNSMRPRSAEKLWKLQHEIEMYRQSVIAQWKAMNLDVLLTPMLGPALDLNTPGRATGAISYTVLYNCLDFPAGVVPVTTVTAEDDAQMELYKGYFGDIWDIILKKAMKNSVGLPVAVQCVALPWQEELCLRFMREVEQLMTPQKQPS
Procedure, shortened: (§1)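 Oleamide hydrolysis by 1-4 nM purified E. coli-expressed FAAH (substrate 50 μM = Km) coupled to GDH/NADH, pH 7.4 phosphate, 7.5% DMSO and EtOH, 30° C; A340 followed 90 min. kobs from mono-exponential fits; kinact/Ki from kobs-versus-concentration slope, multiplied by two.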

human FAAH = biological target: T2, human FAAH (Homo sapiens, UniProt O00519); experiment: FAAH assay, human FAAH enzyme inactivation (kinact/Ki); assay type: biochemical; settings: oleamide 50 μM, 30° C.; for hFAAH kinact/Ki: in vitro, pH 7.4; for kinact/KI: pH 7.4, in vitro, read-out: hFAAH kinact/Ki
T2 construct: made in house; host or cells: E. coli
T2 sequence (O00519 1-579): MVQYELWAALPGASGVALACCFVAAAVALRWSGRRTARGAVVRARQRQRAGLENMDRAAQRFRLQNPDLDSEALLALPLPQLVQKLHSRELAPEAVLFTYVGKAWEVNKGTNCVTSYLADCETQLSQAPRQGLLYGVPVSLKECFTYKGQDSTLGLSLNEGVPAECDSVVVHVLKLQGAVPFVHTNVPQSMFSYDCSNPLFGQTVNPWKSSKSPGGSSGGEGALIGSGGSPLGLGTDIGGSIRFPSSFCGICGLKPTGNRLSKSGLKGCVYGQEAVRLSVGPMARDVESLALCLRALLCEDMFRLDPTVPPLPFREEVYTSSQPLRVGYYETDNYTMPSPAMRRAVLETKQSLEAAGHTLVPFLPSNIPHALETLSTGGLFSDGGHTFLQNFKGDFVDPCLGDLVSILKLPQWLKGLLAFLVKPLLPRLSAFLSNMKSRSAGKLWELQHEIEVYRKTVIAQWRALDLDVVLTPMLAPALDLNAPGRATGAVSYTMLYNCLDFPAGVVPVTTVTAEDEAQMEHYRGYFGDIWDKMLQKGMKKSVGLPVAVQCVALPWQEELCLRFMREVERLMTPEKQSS
Procedure, shortened: as §1

Male Sprague-Dawley Rats = experiment: In vivo Complete Freund's Adjuvant (CFA) efficacy assay, inhibition of allodynia; parameters: species or system rat; key: (+) indicates the test compound was determined to be efficacious at 3 mpk, oral dosing; (−) indicates the test compound was determined to not be efficacious at 3 mpk, oral dosing; settings: 3 mpk, oral dosing; PWT four hours postdose; p < 0.05 vs vehicle group
Protocol: For additional information on the CFA efficacy assay, see Jayamanne et al., Brit. J. Pharmacol. 2006, 147, 281-288. Experiments were performed on adult Male Sprague-Dawley Rats (200 g-250 g). Inflammation was induced in the left hindpaw of the rat by an intra-plantar injection of 150 uL Complete Freund's Adjuvant (CFA) (SIGMA F5881). The CFA injection immediately induces local inflammation, paw swelling, and pain that persists for at least two weeks post-injection. Baseline paw withdrawal threshold (PWT) was measured to determine the percent inhibition of allodynia using a set of Von Frey Hairs on day 4 post injection as illustrated by the Dixon Up and Down Method (W. J. Dixon, Ann. Rev. Pharmacol. Toxicol. 1980, 20:441-462). […] Following Dose administration PWT threshold was evaluated again at four hours postdose. The Sprague-Dawley rats used in this assay were purchased from Harlan, 8520 Allison Pointe Blvd., Indianapolis, Ind., 46250, U.S.A. Sprague-Dawley rats are an outbred breed of albino rats first produced by the Sprague Dawley farms in Madison, Wis., U.S.A.
Percent Inhibition of Allodynia was determined by the formula: […]
ΔPWT measurements were averaged for each treatment group and statistical comparisons between groups were made using ANOVA and Dunnett's two-tailed test. […]

| Compound | kinact/KI (rat FAAH) | hFAAH kinact/Ki (human FAAH) | CFA Efficacy (Male Sprague-Dawley Rats) | rFAAH kinact/Ki (rat FAAH) | kinact/KI (human FAAH) |
| --- | --- | --- | --- | --- | --- |
| Cc1noc(NC(=O)N2CCC3(CC2)CC(c2ccc(Cl)c(Cl)c2)CO3)c1C (single isomer, unassigned) [Example 37, 3-(3,4-dichlorophenyl)-N-(3,4-dimethylisoxazol-5-yl)-1-oxa-8-azaspiro[4.5]decane-8-carboxamide] | 4540 M⁻¹ s⁻¹ | 4130 M⁻¹ s⁻¹ | (+) | – | – |
| Cc1noc(NC(=O)N2CCC3(CC2)CC(c2cc(F)cc(Cl)c2)CO3)c1C (single isomer, unassigned) [Example 39, 3-(3-chloro-5-fluorophenyl)-N-(3,4-dimethylisoxazol-5-yl)-1-oxa-8-azaspiro[4.5]decane-8-carboxamide] | – | – | (+) | 1510 M⁻¹ s⁻¹ | 1810 M⁻¹ s⁻¹ |
| Cc1noc(NC(=O)N2CCC3(CC2)CC(c2ccc(OCc4ccccc4Cl)c(Cl)c2)CO3)c1C (single isomer, unassigned) [Example 43, 3-{3-chloro-4-[(2-chlorobenzyl)oxy]phenyl}-N-(3,4-dimethylisoxazol-5-yl)-1-oxa-8-azaspiro[4.5]decane-8-carboxamide] | – | 3620 M⁻¹ s⁻¹ | (+) | 5870 M⁻¹ s⁻¹ | – |
| Cc1noc(NC(=O)N2CCC3(CC2)CC(c2ccc(OCc4ccccc4Cl)c(Cl)c2)CO3)c1C (single isomer, unassigned) [Example 44, 3-{3-chloro-4-[(2-chlorobenzyl)oxy]phenyl}-N-(3,4-dimethylisoxazol-5-yl)-1-oxa-8-azaspiro[4.5]decane-8-carboxamide] | – | 1330 M⁻¹ s⁻¹ | (+) | 1950 M⁻¹ s⁻¹ | – |
| Cc1noc(NC(=O)N2CCC3(CC2)CC(c2ccc(OCc4cccc(Cl)c4)c(Cl)c2)CO3)c1C (single isomer, unassigned) [Example 45, 3-{3-chloro-4-[(3-chlorobenzyl)oxy]phenyl}-N-(3,4-dimethylisoxazol-5-yl)-1-oxa-8-azaspiro[4.5]decane-8-carboxamide] | 7130 M⁻¹ s⁻¹ | – | (+) | – | 6240 M⁻¹ s⁻¹ |
| Cc1noc(NC(=O)N2CCC3(CC2)CC(c2ccc(OCc4cccc(Cl)c4)c(Cl)c2)CO3)c1C (single isomer, unassigned) [Example 46, 3-{3-chloro-4-[(3-chlorobenzyl)oxy]phenyl}-N-(3,4-dimethylisoxazol-5-yl)-1-oxa-8-azaspiro[4.5]decane-8-carboxamide] | – | 4490 M⁻¹ s⁻¹ | (+) | 6920 M⁻¹ s⁻¹ | – |
| CCc1noc(NC(=O)N2CCC3(CC2)CC(c2ccc(Cl)c(Cl)c2)CO3)c1C (single isomer, unassigned) [Example 68, 3-(3,4-dichlorophenyl)-N-(3-ethyl-4-methylisoxazol-5-yl)-1-oxa-8-azaspiro[4.5]decane-8-carboxamide] | 3030 M⁻¹ s⁻¹ | – | (+) | – | 1920 M⁻¹ s⁻¹ |
| Cc1noc(NC(=O)N2CCC3(CC2)CC(c2noc(-c4ccc(OC(F)(F)F)cc4)n2)CO3)c1C (single isomer, unassigned) [Example 72, N-(3,4-dimethylisoxazol-5-yl)-3-{5-[4-(trifluoromethoxy)phenyl]-1,2,4-oxadiazol-3-yl}-1-oxa-8-azaspiro[4.5]decane-8-carboxamide] | 1500 M⁻¹ s⁻¹ | – | (+) | – | 4250 M⁻¹ s⁻¹ |
| Cc1noc(NC(=O)N2CCC3(CC2)CC(c2noc(-c4ccc(OC(F)(F)F)cc4)n2)CO3)c1C (single isomer, unassigned) [Example 73, N-(3,4-dimethylisoxazol-5-yl)-3-{5-[4-(trifluoromethoxy)phenyl]-1,2,4-oxadiazol-3-yl}-1-oxa-8-azaspiro[4.5]decane-8-carboxamide] | – | 2150 M⁻¹ s⁻¹ | (+) | 1340 M⁻¹ s⁻¹ | – |
| Cc1noc(NC(=O)N2CCC3(CC2)CC(c2noc(-c4ccc(C(F)(F)F)cc4)n2)CO3)c1C (single isomer, unassigned) [Example 75, N-(3,4-dimethylisoxazol-5-yl)-3-{5-[4-(trifluoromethyl)phenyl]-1,2,4-oxadiazol-3-yl}-1-oxa-8-azaspiro[4.5]decane-8-carboxamide] | 1610 M⁻¹ s⁻¹ | – | (+) | – | 3570 M⁻¹ s⁻¹ |
| Cc1noc(NC(=O)N2CCC3(CC2)CC(c2noc(-c4ccc(C(F)(F)F)cc4)n2)CO3)c1C (single isomer, unassigned) [Example 76, N-(3,4-dimethylisoxazol-5-yl)-3-{5-[4-(trifluoromethyl)phenyl]-1,2,4-oxadiazol-3-yl}-1-oxa-8-azaspiro[4.5]decane-8-carboxamide] | – | 3120 M⁻¹ s⁻¹ | (+) | 1150 M⁻¹ s⁻¹ | – |
| Cn1nnnc1NC(=O)N1CCC2(CC1)CC(c1cccc(OC(F)(F)F)c1)CO2 (single isomer, unassigned) [Example 77, N-(1-methyl-1H-tetrazol-5-yl)-3-[3-(trifluoromethoxy)phenyl]-1-oxa-8-azaspiro[4.5]decane-8-carboxamide] | 4560 M⁻¹ s⁻¹ | – | (+) | – | 7110 M⁻¹ s⁻¹ |
| Cn1nnnc1NC(=O)N1CCC2(CC1)CC(c1cccc(OC(F)(F)F)c1)CO2 (single isomer, unassigned) [Example 78, N-(1-methyl-1H-tetrazol-5-yl)-3-[3-(trifluoromethoxy)phenyl]-1-oxa-8-azaspiro[4.5]decane-8-carboxamide] | – | 7100 M⁻¹ s⁻¹ | (+) | 3840 M⁻¹ s⁻¹ | – |
| Cn1nnnc1NC(=O)N1CCC2(CC1)CC(c1cccc(Cl)c1)CO2 (single isomer, unassigned) [Example 79, 3-(3-chlorophenyl)-N-(1-methyl-1H-tetrazol-5-yl)-1-oxa-8-azaspiro[4.5]decane-8-carboxamide] | – | 5600 M⁻¹ s⁻¹ | (+) | 1970 M⁻¹ s⁻¹ | – |
| Cn1nnnc1NC(=O)N1CCC2(CC1)CC(c1cccc(Cl)c1)CO2 (single isomer, unassigned) [Example 80, 3-(3-chlorophenyl)-N-(1-methyl-1H-tetrazol-5-yl)-1-oxa-8-azaspiro[4.5]decane-8-carboxamide] | – | 11400 M⁻¹ s⁻¹ | (+) | 5520 M⁻¹ s⁻¹ | – |
| Cn1nnnc1NC(=O)N1CCC2(CC1)CC(c1noc(-c3ccc(C(F)(F)F)cc3)n1)CO2 (single isomer, unassigned) [Example 82, N-(1-methyl-1H-tetrazol-5-yl)-3-{5-[4-(trifluoromethyl)phenyl]-1,2,4-oxadiazol-3-yl}-1-oxa-8-azaspiro[4.5]decane-8-carboxamide] | 1500 M⁻¹ s⁻¹ | – | (+) | – | 5110 M⁻¹ s⁻¹ |
